pIC50: −log10 of the molar value.
Experiments:
CK1δ = CK1δ (Homo sapiens, UniProt P48730); assay: CK1δ kinase assay (Caliper LABCHIP electrophoretic separation of fluoresceinated peptide substrate and product); assay type: biochemical; conditions: 200 pM CK1δ, 50 μM ATP, 1.5 μM peptide substrate, 22 hours at room temperature
Method: (§1) CK1ϵ and CK1δ Kinase Assays
(§2) The kinase assay was performed in V-bottom 384-well plates.
(§3) The reaction was incubated at room temperature for 22 hours and terminated by adding 45 μl of 35 mM EDTA to each sample. The reaction mixture was analyzed on the Caliper LABCHIP®3000 (Caliper, Hopkinton, Mass.) by electrophoretic separation of the unphosphorylated substrate and phosphorylated product. […] Compounds were dissolved at 10 mM in dimethylsulfoxide (DMSO) and evaluated at eleven concentrations. IC50 values were derived by non-linear regression analysis.

CK1ϵ = CK1ϵ (Homo sapiens, UniProt P49674); assay: CK1ϵ kinase assay (Caliper LABCHIP electrophoretic separation of fluoresceinated peptide substrate and product); assay type: biochemical; conditions: 200 pM CK1ϵ, 50 μM ATP, 1.5 μM peptide substrate, 22 hours at room temperature; read-out: CK1ε (IC50)
Sequence of CK1ϵ (P49674 whole entry): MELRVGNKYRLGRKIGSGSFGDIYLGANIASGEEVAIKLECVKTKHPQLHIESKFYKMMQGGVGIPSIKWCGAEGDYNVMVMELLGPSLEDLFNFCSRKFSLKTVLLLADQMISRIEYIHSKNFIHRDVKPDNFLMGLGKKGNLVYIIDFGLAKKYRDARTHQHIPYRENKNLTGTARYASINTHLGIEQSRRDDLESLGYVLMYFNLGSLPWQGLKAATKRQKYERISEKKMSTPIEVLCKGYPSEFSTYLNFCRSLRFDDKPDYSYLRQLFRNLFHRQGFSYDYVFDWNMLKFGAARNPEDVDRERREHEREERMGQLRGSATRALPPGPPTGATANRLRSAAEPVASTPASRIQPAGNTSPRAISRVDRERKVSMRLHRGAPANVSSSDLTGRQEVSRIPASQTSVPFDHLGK
Method: as §1, §2, §3

Sequence of CK1δ (P48730 whole entry): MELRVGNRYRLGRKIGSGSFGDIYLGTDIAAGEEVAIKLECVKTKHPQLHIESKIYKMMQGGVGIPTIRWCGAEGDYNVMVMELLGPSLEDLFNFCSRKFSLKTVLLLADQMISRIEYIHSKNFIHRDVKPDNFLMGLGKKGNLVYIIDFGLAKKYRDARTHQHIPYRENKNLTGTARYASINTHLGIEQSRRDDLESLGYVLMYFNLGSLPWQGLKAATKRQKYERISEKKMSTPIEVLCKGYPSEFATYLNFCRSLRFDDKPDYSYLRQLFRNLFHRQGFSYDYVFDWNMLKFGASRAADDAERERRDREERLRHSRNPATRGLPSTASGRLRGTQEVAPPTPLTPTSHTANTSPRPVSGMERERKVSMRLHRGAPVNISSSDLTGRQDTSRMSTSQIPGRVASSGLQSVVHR

pIC50 (CK1δ)	pIC50 (CK1ϵ)	SMILES
9.70	9.10	CS(=O)(=O)N1CCn2nc(-c3ccc(F)cc3)c(-c3ccc4nc(NC(=O)c5ccnc(F)c5)cn4n3)c2C1 [Example 35, 2-Fluoro-N-(6-(2-(4-fluorophenyl)-5-(methylsulfonyl)-4,5,6,7-tetrahydropyrazolo[1,5-a]pyrazin-3-yl)imidazo[1,2-b]pyridazin-2-yl)isonicotinamide]
10.00	8.92	O=C(Nc1cn2nc(-c3c(-c4ccc(F)cc4)nn4c3CN(S(=O)(=O)C3CC3)CC4)ccc2n1)c1ccnc(F)c1 [Example 36, N-(6-(5-(Cyclopropylsulfonyl)-2-(4-fluorophenyl)-4,5,6,7-tetrahydropyrazolo[1,5-a]pyrazin-3-yl)imidazo[1,2-b]pyridazin-2-yl)-2-fluoroisonicotinamide]
8.96	7.85	O=C(Nc1cn2nc(-c3c(-c4ccc(F)cc4)nn4c3CN(S(=O)(=O)c3ccc(F)cc3)CC4)ccc2n1)c1ccnc(F)c1 [Example 37, 2-Fluoro-N-(6-(2-(4-fluorophenyl)-5-((4-fluorophenyl)sulfonyl)-4,5,6,7-tetrahydropyrazolo [1,5-a]pyrazin-3-yl)imidazo [1,2-b]pyridazin-2-yl) isonicotinamide]
9.52	8.31	O=C(Nc1cn2nc(-c3c(-c4ccc(F)cc4)nn4c3CN(S(=O)(=O)c3cccc(F)c3)CC4)ccc2n1)c1ccnc(F)c1 [Example 38, 2-Fluoro-N-(6-(2-(4-fluorophenyl)-5-((3-fluorophenyl)sulfonyl)-4,5,6,7-tetrahydropyrazolo [1,5-a]pyrazin-3-yl)imidazo [1,2-b]pyridazin-2-yl) isonicotinamide]
9.40	8.34	Cn1cnc(S(=O)(=O)N2CCn3nc(-c4ccc(F)cc4)c(-c4ccc5nc(NC(=O)c6ccnc(F)c6)cn5n4)c3C2)c1 [Example 39, 2-Fluoro-N-(6-(2-(4-fluorophenyl)-5-((1-methyl-1H-imidazol-4-yl)sulfonyl)-4,5,6,7-tetrahydropyrazolo [1,5-a]pyrazin-3-yl)imidazo [1,2-b]pyridazin-2-yl) isonicotinamide]
8.55	7.99	O=C(Nc1cn2nc(-c3c(-c4ccc(F)cc4)nn4c3CN(S(=O)(=O)Cc3ccccc3)CC4)ccc2n1)c1ccnc(F)c1 [Example 40, N-(6-(5-(Benzylsulfonyl)-2-(4-fluorophenyl)-4,5,6,7-tetrahydropyrazolo[1,5-a]pyrazin-3-yl)imidazo[1,2-b]pyridazin-2-yl)-2-fluoroisonicotinamide]
8.55	7.69	CC(C)(C)NC(=O)N1CCn2nc(-c3ccc(F)cc3)c(-c3ccc4nc(NC(=O)c5ccnc(F)c5)cn4n3)c2C1 [Example 41, N-(tert-Butyl)-3-(2-(2-fluoroisonicotinamido)imidazo[1,2-b]pyridazin-6-yl)-2-(4-fluorophenyl)-6,7-dihydropyrazolo[1,5-a]pyrazine-5 (4)-carboxamide]
9.10	8.02	CC(C)NC(=O)N1CCn2nc(-c3ccc(F)cc3)c(-c3ccc4nc(NC(=O)c5ccnc(F)c5)cn4n3)c2C1 [Example 42, 3-(2-(2-Fluoroisonicotinamido)imidazo[1,2-b]pyridazin-6-yl)-2-(4-fluorophenyl)-N-isopropyl-6,7-dihydropyrazolo[1,5-a] pyrazine-5(4H)-carboxamide]
8.80	7.62	O=C(Nc1cn2nc(-c3c(-c4ccc(F)cc4)nn4c3CN(C(=O)NC3CCCCC3)CC4)ccc2n1)c1ccnc(F)c1 [Example 43, N-Cyclohexyl-3-(2-(2-fluoroisonicotinamido)imidazo [1,2-b]pyridazin-6-yl)-2-(4-fluorophenyl)-6,7-dihydropyrazolo[1,5-a]pyrazine-5(4H)-carboxamide]
8.70	7.86	O=C(Nc1cn2nc(-c3c(-c4ccc(F)cc4)nn4c3CN(C(=O)NC3CCCC3)CC4)ccc2n1)c1ccnc(F)c1 [Example 44, N-Cyclopentyl-3-(2-(2-fluoroisonicotinamido)imidazo [1,2-b]pyridazin-6-yl)-2-(4-fluorophenyl)-6,7-dihydropyrazolo[1,5-a]pyrazine-5(4H)-carboxamide]
